# Laboratory results taken from the supplement of paper PMC10307832.
# Key:
# Experiment in all cases: relative viability (nuclei count vs DMSO), 5 days (fraction); higher = more cells survive
# Carfilzomib + Navitoclax = compound: CC(C)C[C@H](NC(=O)[C@H](CCc1ccccc1)NC(=O)CN1CCOCC1)C(=O)N[C@@H](Cc1ccccc1)C(=O)N[C@@H](CC(C)C)C(=O)[C@@]1(C)CO1 [Carfilzomib] + CC1(C)CCC(c2ccc(Cl)cc2)=C(CN2CCN(c3ccc(C(=O)NS(=O)(=O)c4ccc(N[C@H](CCN5CCOCC5)CSc5ccccc5)c(S(=O)(=O)C(F)(F)F)c4)cc3)CC2)C1 [Navitoclax] (partner 0.5 µM)
# Procedure, shortened: (§1)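 Lung cancer cell lines in 1536-well plates got either a single drug or a fixed anchor-drug dose together with five library-drug doses (not always all listed) in √10 steps, by pin tool, on the day after seeding. Nuclei were counted after 5 days, and relative viability is the treated-to-vehicle ratio of nuclei counts. Values are medians of duplicate plates.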
# Carfilzomib + Foretinib = compound: CC(C)C[C@H](NC(=O)[C@H](CCc1ccccc1)NC(=O)CN1CCOCC1)C(=O)N[C@@H](Cc1ccccc1)C(=O)N[C@@H](CC(C)C)C(=O)[C@@]1(C)CO1 [Carfilzomib] + COc1cc2c(Oc3ccc(NC(=O)C4(C(=O)Nc5ccc(F)cc5)CC4)cc3F)ccnc2cc1OCCCN1CCOCC1 [Foretinib] (partner 0.25 µM)
# Procedure, shortened: as §1
# Carfilzomib + Pemetrexed = compound: CC(C)C[C@H](NC(=O)[C@H](CCc1ccccc1)NC(=O)CN1CCOCC1)C(=O)N[C@@H](Cc1ccccc1)C(=O)N[C@@H](CC(C)C)C(=O)[C@@]1(C)CO1 [Carfilzomib] + Nc1nc2[nH]cc(CCc3ccc(C(=O)N[C@@H](CCC(=O)O)C(=O)O)cc3)c2c(=O)[nH]1 [Pemetrexed] (partner 0.2 µM)
# Procedure, shortened: as §1
# Olaparib + Foretinib = compound: O=C(c1cc(Cc2n[nH]c(=O)c3ccccc23)ccc1F)N1CCN(C(=O)C2CC2)CC1 [Olaparib] + COc1cc2c(Oc3ccc(NC(=O)C4(C(=O)Nc5ccc(F)cc5)CC4)cc3F)ccnc2cc1OCCCN1CCOCC1 [Foretinib] (partner 0.25 µM)
# Procedure, shortened: as §1
Cell Line,relative viability (Carfilzomib + Navitoclax; first compound 0.001 µM),relative viability (Carfilzomib + Navitoclax; first compound 0.003162 µM),relative viability (Carfilzomib + Navitoclax; first compound 0.01 µM),relative viability (Carfilzomib + Navitoclax; first compound 0.03162 µM),relative viability (Carfilzomib + Navitoclax; first compound 0.1 µM),relative viability (Carfilzomib + Foretinib; first compound 0.001 µM),relative viability (Carfilzomib + Foretinib; first compound 0.003162 µM),relative viability (Carfilzomib + Foretinib; first compound 0.01 µM),relative viability (Carfilzomib + Foretinib; first compound 0.03162 µM),relative viability (Carfilzomib + Foretinib; first compound 0.1 µM),relative viability (Carfilzomib + Pemetrexed; first compound 0.001 µM),relative viability (Carfilzomib + Pemetrexed; first compound 0.003162 µM),relative viability (Carfilzomib + Pemetrexed; first compound 0.01 µM),relative viability (Carfilzomib + Pemetrexed; first compound 0.03162 µM),relative viability (Carfilzomib + Pemetrexed; first compound 0.1 µM),relative viability (Olaparib + Foretinib; first compound 0.08 µM),relative viability (Olaparib + Foretinib; first compound 0.253 µM),relative viability (Olaparib + Foretinib; first compound 2.53 µM),relative viability (Olaparib + Foretinib; first compound 8 µM)
201T,1.14,1.23,1.22,1.23,1.18,1.13,1.14,1.16,1.02,0.29,0.33,0.33,0.337,0.351,0.312,1.19,1.12,1.07,1.05
A549,1.17,1.21,1.24,0.0372,0.0397,0.86,0.966,0.946,0.0732,0.0218,,,,,,0.996,0.774,0.872,0.548
A-427,0.954,1.01,1.04,0.644,0.113,1.02,1.13,1.09,0.474,0.121,0.951,1.02,0.983,0.842,0.183,1.03,1.01,0.769,0.834
ABC-1,,,,,,0.912,0.815,0.292,0.17,0.224,,,,,,1.09,1.31,0.98,0.922
BEN,0.0574,0.0653,0.0797,0.0533,0.047,0.575,0.69,0.577,0.577,0.339,0.743,0.778,0.787,0.599,0.352,,0.529,0.688,0.702
CAL-12T,,0.996,1.22,0.822,0.104,1.08,1.1,1.06,0.807,0.103,1.19,1.37,1.15,0.832,0.168,1.24,0.984,1.07,0.928
COR-L23,1.1,1.14,0.724,0.0667,0.0704,0.991,1.16,0.996,0.196,0.0831,0.2,0.187,0.185,0.123,0.0834,1.08,0.842,0.797,0.567
COR-L 105,0.885,0.628,0.643,0.353,0.298,1.31,1.13,1.05,0.779,0.26,1.24,1.09,1.19,0.469,0.317,1.37,0.988,0.807,0.835
Calu-6,0.885,0.997,0.561,0.0829,0.0768,0.889,0.933,0.842,0.127,0.0591,,,,,,0.892,0.789,0.855,0.536
ChaGo-K-1,,1.58,1.01,0.693,0.385,0.941,0.991,0.859,0.62,0.172,0.27,0.258,0.258,0.262,0.179,0.872,0.868,0.763,0.608
EBC-1,0.415,0.288,0.184,0.13,0.139,0.0996,0.124,0.121,0.0586,0.0611,,,,,,0.116,0.094,0.1,0.107
EKVX,0.992,1,1.21,0.427,0.346,0.51,0.945,1.24,0.309,0.765,0.393,0.447,0.489,,0.371,1.03,1,0.294,1.01
EMC-BAC-2,1.15,1.21,1.22,1.12,0.527,1.02,1.08,1.12,0.975,0.221,0.496,0.492,0.46,0.434,0.432,1.05,0.998,0.953,0.655
EPLC-272H,1.07,1.15,0.839,0.09,0.0751,0.901,0.764,0.601,0.0828,0.0461,0.367,0.263,0.46,0.114,0.0633,0.764,0.582,0.729,0.64
H3255,0.676,0.63,0.663,0.37,0.151,0.876,0.952,0.939,0.815,0.327,0.544,0.601,0.578,0.423,0.249,0.942,0.792,0.901,0.872
HARA,1.1,1.14,1.21,0.0941,0.0841,0.93,0.963,1.1,0.0689,0.0561,0.241,0.23,0.252,0.0877,0.155,0.97,0.807,0.951,0.695
HCC-15,0.667,0.728,0.762,0.423,0.148,0.96,1.19,1.12,0.589,0.149,0.242,0.218,0.238,0.224,0.13,1.23,0.95,1.07,0.868
